Activity calls are given as the source filed them. No cut-off for these calls is given here.
Assays:
[1] = target: Mast/stem cell growth factor receptor Kit (Homo sapiens, UniProt P10721); assay: Inhibition of wild type KIT (unknown origin) using biotinylated poly-Glu-Tyr as substrate preincubated for 30 mins followed by substrate addition in presence of ATP by TR-FRET assay
[2] = target: Mast/stem cell growth factor receptor Kit (Homo sapiens, UniProt P10721, D816H); assay: Inhibition of KIT D816H mutant (unknown origin) using biotinylated poly-Glu-Tyr as substrate preincubated for 30 mins followed by substrate addition in presence of ATP by TR-FRET assay
Mast/stem cell growth factor receptor Kit (Homo sapiens, UniProt P10721, D816H), sequence (P10721 26-976 D816H limits assumed): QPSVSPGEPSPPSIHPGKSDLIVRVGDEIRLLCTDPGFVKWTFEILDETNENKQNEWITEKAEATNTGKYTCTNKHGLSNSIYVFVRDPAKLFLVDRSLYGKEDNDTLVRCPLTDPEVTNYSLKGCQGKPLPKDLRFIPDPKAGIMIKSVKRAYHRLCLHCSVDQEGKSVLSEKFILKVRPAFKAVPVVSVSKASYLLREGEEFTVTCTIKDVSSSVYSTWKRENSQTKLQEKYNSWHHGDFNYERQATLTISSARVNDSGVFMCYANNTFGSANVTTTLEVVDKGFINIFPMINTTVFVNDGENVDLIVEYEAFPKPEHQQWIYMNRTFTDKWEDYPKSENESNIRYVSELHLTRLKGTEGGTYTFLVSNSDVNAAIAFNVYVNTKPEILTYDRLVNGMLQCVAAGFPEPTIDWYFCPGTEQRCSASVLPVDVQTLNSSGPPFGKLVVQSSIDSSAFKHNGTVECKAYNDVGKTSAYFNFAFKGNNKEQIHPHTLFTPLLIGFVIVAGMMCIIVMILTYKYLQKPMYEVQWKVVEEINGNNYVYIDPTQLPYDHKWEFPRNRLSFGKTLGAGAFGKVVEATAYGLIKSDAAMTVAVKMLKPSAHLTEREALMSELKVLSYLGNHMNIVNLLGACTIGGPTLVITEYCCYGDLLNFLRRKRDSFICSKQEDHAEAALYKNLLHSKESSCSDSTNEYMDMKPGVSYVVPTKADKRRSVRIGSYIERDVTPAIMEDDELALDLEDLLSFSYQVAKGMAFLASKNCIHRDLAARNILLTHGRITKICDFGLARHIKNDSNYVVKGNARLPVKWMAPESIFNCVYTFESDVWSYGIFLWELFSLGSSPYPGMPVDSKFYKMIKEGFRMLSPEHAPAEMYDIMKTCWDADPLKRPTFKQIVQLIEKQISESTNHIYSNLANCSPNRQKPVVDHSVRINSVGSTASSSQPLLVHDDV

[3] = Cytotoxicity against human GIST48B cells assessed as cell growth inhibition after 72 hrs by CellTiterGlo assay; type: cell-based; settings: for GI50 at 72 h: GIST48B cells; for GI50: gist48b, 72 h
GISTT1 [4] = assay: Cytotoxicity against human GISTT1 cells assessed as cell growth inhibition after 72 hrs by CellTiterGlo assay; type: functional; settings: GISTT1, 72 h
GISTT1 [5] = assay: Cytotoxicity against human GISTT1 cells harboring KIT T670I mutant assessed as cell growth inhibition after 72 hrs by CellTiterGlo assay; type: functional; settings: GISTT1, 72 h
GISTT1 [6] = assay: Cytotoxicity against human GISTT1 cells harboring KIT D816E mutant assessed as cell growth inhibition after 72 hrs by CellTiterGlo assay; type: functional; settings: GISTT1, 72 h
[7] = target: Mast/stem cell growth factor receptor Kit (Homo sapiens, UniProt P10721, V559D/T670I)
Mast/stem cell growth factor receptor Kit (Homo sapiens, UniProt P10721, V559D/T670I), sequence (P10721 26-976 V559D/T670I limits assumed): as the sequence (P10721 26-976 D816H limits assumed) above, with V534D, T645I, H791D counted along it

[8] = target: T1, Mast/stem cell growth factor receptor Kit (Homo sapiens, UniProt P10721, V559D/V654A)
T1 sequence (P10721 26-976 V559D/V654A limits assumed): as the sequence (P10721 26-976 D816H limits assumed) above, with V534D, V629A, H791D counted along it

[9] = tested on: Mast/stem cell growth factor receptor Kit (Homo sapiens), P10721 [V654A]; settings: GIST430
Mast/stem cell growth factor receptor Kit (Homo sapiens), P10721 [V654A], sequence (P10721 whole entry V654A): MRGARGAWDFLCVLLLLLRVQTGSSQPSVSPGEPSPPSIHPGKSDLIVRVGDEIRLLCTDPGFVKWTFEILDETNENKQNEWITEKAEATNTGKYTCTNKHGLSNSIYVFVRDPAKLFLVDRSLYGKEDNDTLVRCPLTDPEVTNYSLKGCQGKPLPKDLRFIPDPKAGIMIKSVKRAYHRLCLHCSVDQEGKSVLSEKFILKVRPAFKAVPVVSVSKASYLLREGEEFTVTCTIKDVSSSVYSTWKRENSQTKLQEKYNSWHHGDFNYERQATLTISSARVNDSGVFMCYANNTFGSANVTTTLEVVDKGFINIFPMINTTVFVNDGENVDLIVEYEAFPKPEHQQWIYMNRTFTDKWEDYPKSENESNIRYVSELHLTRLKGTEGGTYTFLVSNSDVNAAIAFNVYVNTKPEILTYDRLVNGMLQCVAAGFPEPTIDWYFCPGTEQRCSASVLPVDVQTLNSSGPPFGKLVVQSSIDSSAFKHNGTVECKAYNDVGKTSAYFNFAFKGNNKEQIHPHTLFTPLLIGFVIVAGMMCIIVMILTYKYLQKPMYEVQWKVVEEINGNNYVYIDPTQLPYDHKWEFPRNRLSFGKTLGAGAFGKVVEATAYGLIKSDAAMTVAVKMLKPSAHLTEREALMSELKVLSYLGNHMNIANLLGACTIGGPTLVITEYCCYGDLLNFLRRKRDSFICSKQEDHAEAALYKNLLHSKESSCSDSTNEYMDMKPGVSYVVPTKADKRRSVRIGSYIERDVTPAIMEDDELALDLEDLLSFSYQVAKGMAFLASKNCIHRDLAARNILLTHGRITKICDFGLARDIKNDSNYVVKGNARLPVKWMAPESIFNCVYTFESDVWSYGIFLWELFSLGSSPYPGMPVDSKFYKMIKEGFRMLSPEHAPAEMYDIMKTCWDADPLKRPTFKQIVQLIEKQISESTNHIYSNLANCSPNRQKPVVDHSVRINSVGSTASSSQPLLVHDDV

GISTT1 [10] = settings: Homo sapiens
[11] = target: Mast/stem cell growth factor receptor Kit (Homo sapiens, UniProt P10721, T670I/V559D)
Mast/stem cell growth factor receptor Kit (Homo sapiens, UniProt P10721, T670I/V559D), sequence (P10721 26-976 V559D/T670I limits assumed): as the sequence (P10721 26-976 D816H limits assumed) above, with V534D, T645I, H791D counted along it

[12] = target: T1, Mast/stem cell growth factor receptor Kit; remark: listed apart in the source

Mast/stem cell growth factor receptor Kit (Homo sapiens, UniProt P10721), sequence (P10721 whole entry): as the sequence (P10721 whole entry V654A) above, with A654V counted along it

Structure (SMILES): Cc1ccc(C(=O)Nc2ccc(CN3CCN(C)CC3)cc2)cc1C#Cc1cnc(N)nc1
- IC50 [1]: 2.6 nM
- IC50 [2]: Not Active
- GI50 at 72 h [3]: 6880 nM
- GI50 (GISTT1 [4]): 33 nM
- GI50 (GISTT1 [5]): 1220 nM
- GI50 (GISTT1 [6]): 1270 nM
- IC50 [7]: Not Active
- IC50 [8]: Not Active
- GI50 [9]: 2060 nM

Structure (SMILES): Cc1ccc(C(=O)Nc2ccc(CN3CCN(C)CC3)c(C(F)(F)F)c2)c(F)c1I
- IC50 [1]: 184 nM
- IC50 [2]: Not Active
- GI50 at 72 h [3]: 3630 nM
- GI50 (GISTT1 [4]): 5730 nM
- GI50 (GISTT1 [5]): 9510 nM
- IC50 [7]: Not Active
- IC50 [8]: Not Active
- GI50 (GISTT1 [10]): inactive
- GI50 [9]: inactive

Structure (SMILES): Cc1ccc(C(=O)Nc2ccc(CN3CCN(C)CC3)c(C(F)(F)F)c2)c(C)c1I
- IC50 [1]: 556 nM
- IC50 [2]: Not Active
- GI50 [3]: Not Active
- GI50 (GISTT1 [4]): 10000 nM
- GI50 (GISTT1 [5]): 15300 nM
- IC50 [7]: Not Active
- IC50 [8]: Not Active
- GI50 (GISTT1 [10]): inactive
- GI50 [9]: inactive

Structure (SMILES): Cc1ccc(C(=O)Nc2ccc(CN3CCN(C)CC3)c(C(F)(F)F)c2)cc1C#Cc1ccccn1
- IC50 [1]: 3.5 nM
- IC50 [2]: Not Active
- GI50 at 72 h [3]: 3630 nM
- GI50 (GISTT1 [4]): 55 nM
- GI50 (GISTT1 [5]): 97 nM
- GI50 (GISTT1 [6]): 1670 nM
- IC50 [11]: 116 nM
- IC50 [8]: Not Active
- GI50 [9]: 697 nM

Structure (SMILES): Cc1ccc(C(=O)Nc2ccc(CN3CCN(C)CC3)c(F)c2)cc1C#Cc1cnc(N)nc1
- IC50 [1]: 6.5 nM
- IC50 ([2]; read-out: IC50): 1710 nM
- GI50 at 72 h [3]: 8280 nM
- GI50 (GISTT1 [4]): 31 nM
- GI50 (GISTT1 [5]): 1360 nM
- GI50 (GISTT1 [6]): 904 nM
- IC50 [7]: Not Active
- IC50 [8]: Not Active
- GI50 [9]: 920 nM

Structure (SMILES): Cc1ccc(C(=O)Nc2ccc(CN3CCN(C)CC3)c(F)c2)cc1C#Cc1cccnc1
- IC50 [1]: 2.3 nM
- IC50 [2]: Not Active
- GI50 at 72 h [3]: 12000 nM
- GI50 (GISTT1 [4]): 57 nM
- GI50 (GISTT1 [5]): 3290 nM
- GI50 (GISTT1 [6]): 5360 nM
- IC50 [7]: Not Active
- IC50 [8]: Not Active
- GI50 [9]: 1640 nM

Structure (SMILES): Cc1ccc(C(=O)Nc2ccc(CN3CCN(C)CC3)c(C(F)(F)F)c2)cc1C#Cc1ccn2cnnc2c1
- IC50 [1]: 2.5 nM
- IC50 [2]: Not Active
- GI50 at 72 h [3]: 4150 nM
- GI50 (GISTT1 [4]): 282 nM
- GI50 (GISTT1 [5]): 2970 nM
- IC50 [11]: 2150 nM
- IC50 [8]: Not Active
- GI50 (GISTT1 [10]): inactive
- GI50 [9]: 4140 nM

Structure (SMILES): Cc1ccc(C(=O)Nc2ccc(CN3CCN(C)CC3)cc2)cc1C#Cc1cccnc1
- IC50 [1]: 3.3 nM
- IC50 [2]: Not Active
- GI50 [3]: Not Active
- GI50 (GISTT1 [4]): 150 nM
- GI50 (GISTT1 [5]): 6350 nM
- GI50 (GISTT1 [6]): 9610 nM
- IC50 [7]: Not Active
- IC50 [8]: Not Active
- GI50 [9]: 4030 nM

Structure (SMILES): Cc1ccc(C(=O)Nc2ccc(CN3CCN(C)CC3)cc2)cc1C#Cc1ccccn1
- IC50 [1]: 240 nM
- IC50 [2]: Not Active
- GI50 [3]: Not Active
- GI50 (GISTT1 [4]): 7100 nM
- GI50 (GISTT1 [5]): 12500 nM
- IC50 [7]: Not Active
- IC50 [8]: Not Active
- GI50 (GISTT1 [10]): inactive
- GI50 [9]: inactive

Structure (SMILES): Cc1ccc(C(=O)Nc2ccc(CN3CCN(C)CC3)c(C(F)(F)F)c2)cc1C#Cc1ccc(N)nn1
- IC50 [1]: 5.8 nM
- IC50 ([2]; read-out: IC50): 2270 nM
- GI50 at 72 h [3]: 6250 nM
- GI50 (GISTT1 [4]): 54 nM
- GI50 (GISTT1 [5]): 89 nM
- GI50 (GISTT1 [6]): 580 nM
- IC50 [11]: 150 nM
- IC50 [8]: Not Active
- GI50 [9]: 459 nM

Structure (SMILES): CCc1c(I)cccc1C(=O)Nc1ccc(CN2CCN(C)CC2)c(C(F)(F)F)c1
- IC50 [1]: 1040 nM
- IC50 [2]: Not Active
- GI50 at 72 h [3]: 9940 nM
- GI50 (GISTT1 [4]): 11000 nM
- GI50 (GISTT1 [5]): 7610 nM
- IC50 [7]: Not Active
- IC50 [8]: Not Active
- GI50 (GISTT1 [10]): inactive
- GI50 [9]: 15900 nM

Structure (SMILES): CCN(CC)CCNC(=O)c1c(C)[nH]c(/C=C2\C(=O)Nc3ccc(F)cc32)c1C [SUNITINIB]
- GI50 [3]: Not Active
- GI50 (GISTT1 [4]): 40 nM
- GI50 (GISTT1 [5]): 90 nM
- GI50 (GISTT1 [6]): 5880 nM

Structure (SMILES): Cc1ccc(C(=O)Nc2ccc(CN3CCN(C)CC3)c(C(F)(F)F)c2)cc1C#Cc1ccc(N)nc1
- IC50 [1]: 2 nM
- IC50 ([2]; read-out: IC50): 140 nM
- GI50 at 72 h [3]: 2240 nM
- GI50 (GISTT1 [4]): 42 nM
- GI50 (GISTT1 [5]): 67 nM
- GI50 (GISTT1 [6]): 221 nM
- IC50 [11]: 28.8 nM
- IC50 [12]: 908 nM
- GI50 [9]: 404 nM

Structure (SMILES): Cc1ccc(C(=O)Nc2ccc(CN3CCN(C)CC3)c(C(F)(F)F)c2)cc1I
- IC50 [1]: 6.8 nM
- IC50 [2]: Not Active
- GI50 at 72 h [3]: 4880 nM
- GI50 (GISTT1 [4]): 896 nM
- GI50 (GISTT1 [5]): 3340 nM
- GI50 (GISTT1 [6]): 9890 nM
- IC50 [7]: Not Active
- IC50 [8]: Not Active
- GI50 [9]: 3900 nM

Structure (SMILES): Cc1ccc(C(=O)Nc2ccc(CN3CCN(C)CC3)c(C(F)(F)F)c2)cc1C#Cc1ccc(OCc2ccccc2)cn1
- IC50 [1]: 121 nM
- IC50 [2]: Not Active
- GI50 at 72 h [3]: 1860 nM
- GI50 (GISTT1 [4]): 121 nM
- GI50 (GISTT1 [5]): 4380 nM
- IC50 [7]: Not Active
- IC50 [8]: Not Active
- GI50 (GISTT1 [10]): inactive
- GI50 [9]: 2000 nM

Structure (SMILES): Cc1ccc(C(=O)Nc2ccc(CN3CCN(C)CC3)c(C(F)(F)F)c2)cc1C#Cc1cccnc1
- IC50 [1]: 2.1 nM
- IC50 ([2]; read-out: IC50): 138 nM
- GI50 at 72 h [3]: 2700 nM
- GI50 (GISTT1 [4]): 51 nM
- GI50 (GISTT1 [5]): 76 nM
- GI50 (GISTT1 [6]): 332 nM
- IC50 [11]: 24 nM
- IC50 [12]: 1100 nM
- GI50 [9]: 333 nM

Structure (SMILES): COCCNc1ncc(C#Cc2cc(C(=O)Nc3ccc(CN4CCN(C)CC4)c(C(F)(F)F)c3)ccc2C)cn1
- IC50 [1]: 3.3 nM
- IC50 ([2]; read-out: IC50): 2610 nM
- GI50 at 72 h [3]: 5130 nM
- GI50 (GISTT1 [4]): 119 nM
- GI50 (GISTT1 [5]): 198 nM
- GI50 (GISTT1 [6]): 704 nM
- IC50 [11]: 107 nM
- IC50 [12]: 252 nM
- GI50 [9]: 481 nM

Structure (SMILES): COc1cccnc1C#Cc1cc(C(=O)Nc2ccc(CN3CCN(C)CC3)c(C(F)(F)F)c2)ccc1C
- IC50 [1]: 6.7 nM
- IC50 [2]: Not Active
- GI50 at 72 h [3]: 3790 nM
- GI50 (GISTT1 [4]): 82 nM
- GI50 (GISTT1 [5]): 165 nM
- GI50 (GISTT1 [6]): 991 nM
- IC50 [11]: 159 nM
- IC50 [8]: Not Active
- GI50 [9]: 564 nM

Structure (SMILES): C#Cc1cc(C(=O)Nc2ccc(CN3CCN(C)CC3)c(C(F)(F)F)c2)ccc1C
- IC50 [1]: 231 nM
- IC50 [2]: Not Active
- GI50 [3]: Not Active
- GI50 (GISTT1 [4]): 7840 nM
- GI50 (GISTT1 [5]): 10100 nM
- IC50 [7]: Not Active
- IC50 [8]: Not Active
- GI50 (GISTT1 [10]): inactive
- GI50 [9]: inactive

Structure (SMILES): Cc1ccc(C(=O)Nc2ccc(CN3CCN(C)CC3)c(C(F)(F)F)c2)cc1C#Cc1ccn2ccnc2c1
- IC50 [1]: 1.6 nM
- IC50 [2]: Not Active
- GI50 at 72 h [3]: 3040 nM
- GI50 (GISTT1 [4]): 59 nM
- GI50 (GISTT1 [5]): 184 nM
- GI50 (GISTT1 [6]): 2290 nM
- IC50 [11]: 72 nM
- IC50 [8]: Not Active
- GI50 [9]: 723 nM
